Measurements as given in ChEMBL document CHEMBL4251615, “Discovery of anilino-furo[2,3-d]pyrimidine derivatives as dual inhibitors of EGFR/HER2 tyrosine kinase and their anticancer activity” (Eur J Med Chem, 2018).

System: SNB-75
Test: Growth inhibition of human SNB75 cells assessed as cell growth at 10 uM incubated for 48 hrs by sulforhodamine B assay relative to control
Assay type: functional
Details: SNB-75, 48 h, read-out: Activity

Row | Compound | growth at 10 µM [%]
1 | CCOC(=O)c1c(C)oc2ncnc(Nc3ccc(OCc4ccc(Cl)c(Cl)c4)cc3)c12 | 102
2 | CCOC(=O)c1c(C)oc2ncnc(Nc3ccc(OCc4cccc(F)c4)cc3)c12 | 119

System: SF-539
Test: Growth inhibition of human SF539 cells assessed as cell growth at 10 uM incubated for 48 hrs by sulforhodamine B assay relative to control
Assay type: functional
Details: SF-539, 48 h, read-out: Activity

Row | Compound | growth at 10 µM [%]
3 | CCOC(=O)c1c(C)oc2ncnc(Nc3ccc(OCc4ccc(Cl)c(Cl)c4)cc3)c12 | 98.4
4 | CCOC(=O)c1c(C)oc2ncnc(Nc3ccc(OCc4cccc(F)c4)cc3)c12 | 94.4

System: UACC-62
Test: Growth inhibition of human UACC62 cells assessed as cell growth at 10 uM incubated for 48 hrs by sulforhodamine B assay relative to control
Assay type: functional
Details: UACC-62, 48 h, read-out: Activity

Row | Compound | growth at 10 µM [%]
5 | CCOC(=O)c1c(C)oc2ncnc(Nc3ccc(OCc4ccc(Cl)c(Cl)c4)cc3)c12 | 93.2
6 | CCOC(=O)c1c(C)oc2ncnc(Nc3ccc(OCc4cccc(F)c4)cc3)c12 | 80.3

System: KM12
Test: Growth inhibition of human KM12 cells assessed as cell growth at 10 uM incubated for 48 hrs by sulforhodamine B assay relative to control
Assay type: functional
Details: KM12, 48 h, read-out: Activity

Row | Compound | growth at 10 µM [%]
7 | CCOC(=O)c1c(C)oc2ncnc(Nc3ccc(OCc4ccc(Cl)c(Cl)c4)cc3)c12 | 102
8 | CCOC(=O)c1c(C)oc2ncnc(Nc3ccc(OCc4cccc(F)c4)cc3)c12 | 92.9

Molecular target: Receptor tyrosine-protein kinase erbB-2 (Homo sapiens) (UniProt P04626)
Test: Inhibition of recombinant human N-terminal GST-tagged HER2 (679 to 1255 residues) expressed in baculovirus infected Sf9 cells at 10 uM using poly[Glu:Tyr] (4:1) as substrate after 40 mins by Kinase-Glo plus luminescence assay relative to control
Details: not given

Receptor tyrosine-protein kinase erbB-2 (Homo sapiens), sequence (P04626 whole entry, the tested form may be a part): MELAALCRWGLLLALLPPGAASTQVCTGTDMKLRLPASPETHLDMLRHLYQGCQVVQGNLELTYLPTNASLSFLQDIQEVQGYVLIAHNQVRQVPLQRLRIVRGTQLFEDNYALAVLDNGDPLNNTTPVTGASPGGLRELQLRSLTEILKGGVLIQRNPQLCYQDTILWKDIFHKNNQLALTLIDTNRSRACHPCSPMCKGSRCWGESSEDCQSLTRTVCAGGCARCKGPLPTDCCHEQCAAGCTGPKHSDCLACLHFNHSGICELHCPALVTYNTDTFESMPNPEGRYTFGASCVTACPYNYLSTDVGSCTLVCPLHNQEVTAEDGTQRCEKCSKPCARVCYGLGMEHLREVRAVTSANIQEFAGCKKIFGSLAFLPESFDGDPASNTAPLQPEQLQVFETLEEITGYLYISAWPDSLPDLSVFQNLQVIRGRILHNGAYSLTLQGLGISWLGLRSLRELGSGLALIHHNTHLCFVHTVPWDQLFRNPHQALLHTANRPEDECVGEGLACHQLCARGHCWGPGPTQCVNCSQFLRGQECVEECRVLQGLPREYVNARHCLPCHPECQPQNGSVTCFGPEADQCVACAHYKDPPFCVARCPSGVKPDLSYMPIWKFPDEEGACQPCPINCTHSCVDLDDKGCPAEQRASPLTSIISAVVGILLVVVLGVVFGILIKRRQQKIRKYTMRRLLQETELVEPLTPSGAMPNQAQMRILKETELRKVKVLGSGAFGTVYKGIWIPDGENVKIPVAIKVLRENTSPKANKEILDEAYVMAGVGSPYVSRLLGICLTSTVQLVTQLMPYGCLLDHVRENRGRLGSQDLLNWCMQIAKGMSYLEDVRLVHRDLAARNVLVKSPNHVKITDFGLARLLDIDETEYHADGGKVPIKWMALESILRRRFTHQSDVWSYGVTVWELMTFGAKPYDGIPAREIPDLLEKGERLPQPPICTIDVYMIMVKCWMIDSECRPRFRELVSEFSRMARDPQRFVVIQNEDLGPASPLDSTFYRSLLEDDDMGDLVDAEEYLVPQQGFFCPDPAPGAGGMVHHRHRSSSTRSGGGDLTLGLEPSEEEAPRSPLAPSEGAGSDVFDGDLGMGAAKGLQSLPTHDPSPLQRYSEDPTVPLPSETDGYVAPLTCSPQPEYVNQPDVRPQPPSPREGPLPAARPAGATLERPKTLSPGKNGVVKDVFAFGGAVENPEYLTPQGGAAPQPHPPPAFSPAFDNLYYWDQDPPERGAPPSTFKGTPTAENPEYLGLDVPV

Row | Compound | inhibition [%]
9 | CCOC(=O)c1c(C)oc2ncnc(Nc3ccc(OCc4ccc(Cl)c(Cl)c4)cc3)c12 | 13
10 | CCOC(=O)c1c(C)oc2ncnc(Nc3ccc(OCc4cccc(F)c4)cc3)c12 | 19

System: SR
Test: Growth inhibition of human SR cells assessed as cell growth at 10 uM incubated for 48 hrs by sulforhodamine B assay relative to control
Assay type: functional
Details: read-out: Activity

Row | Compound | growth at 10 µM [%]
11 | CCOC(=O)c1c(C)oc2ncnc(Nc3ccc(OCc4ccc(Cl)c(Cl)c4)cc3)c12 | 90
12 | CCOC(=O)c1c(C)oc2ncnc(Nc3ccc(OCc4cccc(F)c4)cc3)c12 | 104

System: NCI/ADR-RES
Test: Growth inhibition of human NCI/ADR-RES cells assessed as cell growth at 10 uM incubated for 48 hrs by sulforhodamine B assay relative to control
Assay type: functional
Details: read-out: Activity

Row | Compound | growth at 10 µM [%]
13 | CCOC(=O)c1c(C)oc2ncnc(Nc3ccc(OCc4ccc(Cl)c(Cl)c4)cc3)c12 | 103
14 | CCOC(=O)c1c(C)oc2ncnc(Nc3ccc(OCc4cccc(F)c4)cc3)c12 | 86.2

System: OVCAR-5
Test: Growth inhibition of human OVCAR5 cells assessed as cell growth at 10 uM incubated for 48 hrs by sulforhodamine B assay relative to control
Assay type: functional
Details: OVCAR-5, 48 h, read-out: Activity

Row | Compound | growth at 10 µM [%]
15 | CCOC(=O)c1c(C)oc2ncnc(Nc3ccc(OCc4ccc(Cl)c(Cl)c4)cc3)c12 | 95
16 | CCOC(=O)c1c(C)oc2ncnc(Nc3ccc(OCc4cccc(F)c4)cc3)c12 | 94

System: OVCAR-8
Test: Growth inhibition of human OVCAR8 cells assessed as cell growth at 10 uM incubated for 48 hrs by sulforhodamine B assay relative to control
Assay type: functional
Details: OVCAR-8, 48 h, read-out: Activity

Row | Compound | growth at 10 µM [%]
17 | CCOC(=O)c1c(C)oc2ncnc(Nc3ccc(OCc4ccc(Cl)c(Cl)c4)cc3)c12 | 113
18 | CCOC(=O)c1c(C)oc2ncnc(Nc3ccc(OCc4cccc(F)c4)cc3)c12 | 97.6

System: NCI-H460
Test: Growth inhibition of human NCI-H460 cells assessed as cell growth at 10 uM incubated for 48 hrs by sulforhodamine B assay relative to control
Assay type: functional
Details: NCI-H460, 48 h, read-out: Activity

Row | Compound | growth at 10 µM [%]
19 | CCOC(=O)c1c(C)oc2ncnc(Nc3ccc(OCc4ccc(Cl)c(Cl)c4)cc3)c12 | 102
20 | CCOC(=O)c1c(C)oc2ncnc(Nc3ccc(OCc4cccc(F)c4)cc3)c12 | 68.4

System: K562
Test: Growth inhibition of human K562 cells assessed as cell growth at 10 uM incubated for 48 hrs by sulforhodamine B assay relative to control
Assay type: functional
Details: K562, 48 h, read-out: Activity

Row | Compound | growth at 10 µM [%]
21 | CCOC(=O)c1c(C)oc2ncnc(Nc3ccc(OCc4ccc(Cl)c(Cl)c4)cc3)c12 | 93.8
22 | CCOC(=O)c1c(C)oc2ncnc(Nc3ccc(OCc4cccc(F)c4)cc3)c12 | 107

System: HCT-15
Test: Growth inhibition of human HCT15 cells assessed as cell growth at 10 uM incubated for 48 hrs by sulforhodamine B assay relative to control
Assay type: functional
Details: HCT-15, 48 h, read-out: Activity

Row | Compound | growth at 10 µM [%]
23 | CCOC(=O)c1c(C)oc2ncnc(Nc3ccc(OCc4ccc(Cl)c(Cl)c4)cc3)c12 | 104
24 | CCOC(=O)c1c(C)oc2ncnc(Nc3ccc(OCc4cccc(F)c4)cc3)c12 | 98.5

System: LOX IMVI
Test: Growth inhibition of human LOXIMVI cells assessed as cell growth at 10 uM incubated for 48 hrs by sulforhodamine B assay relative to control
Assay type: functional
Details: read-out: Activity

Row | Compound | growth at 10 µM [%]
25 | CCOC(=O)c1c(C)oc2ncnc(Nc3ccc(OCc4ccc(Cl)c(Cl)c4)cc3)c12 | 95.1
26 | CCOC(=O)c1c(C)oc2ncnc(Nc3ccc(OCc4cccc(F)c4)cc3)c12 | 85.3

System: T47D
Test: Growth inhibition of human T47D cells assessed as cell growth at 10 uM incubated for 48 hrs by sulforhodamine B assay relative to control
Assay type: functional
Details: read-out: Activity

Row | Compound | growth at 10 µM [%]
27 | CCOC(=O)c1c(C)oc2ncnc(Nc3ccc(OCc4ccc(Cl)c(Cl)c4)cc3)c12 | 90.1
28 | CCOC(=O)c1c(C)oc2ncnc(Nc3ccc(OCc4cccc(F)c4)cc3)c12 | 91

System: CCRF-CEM
Test: Growth inhibition of human CCRF-CEM cells assessed as cell growth at 10 uM incubated for 48 hrs by sulforhodamine B assay relative to control
Assay type: functional
Details: read-out: Activity

Row | Compound | growth at 10 µM [%]
29 | CCOC(=O)c1c(C)oc2ncnc(Nc3ccc(OCc4ccc(Cl)c(Cl)c4)cc3)c12 | 110
30 | CCOC(=O)c1c(C)oc2ncnc(Nc3ccc(OCc4cccc(F)c4)cc3)c12 | 91.2

System: NCI-H226
Test: Growth inhibition of human NCI-H226 cells assessed as cell growth at 10 uM incubated for 48 hrs by sulforhodamine B assay relative to control
Assay type: functional
Details: NCI-H226, 48 h, read-out: Activity

Row | Compound | growth at 10 µM [%]
31 | CCOC(=O)c1c(C)oc2ncnc(Nc3ccc(OCc4ccc(Cl)c(Cl)c4)cc3)c12 | 94.4
32 | CCOC(=O)c1c(C)oc2ncnc(Nc3ccc(OCc4cccc(F)c4)cc3)c12 | 87.6

System: CAKI-1
Test: Growth inhibition of human Caki1 cells assessed as cell growth at 10 uM incubated for 48 hrs by sulforhodamine B assay relative to control
Assay type: functional
Details: CAKI-1, 48 h, read-out: Activity

Row | Compound | growth at 10 µM [%]
33 | CCOC(=O)c1c(C)oc2ncnc(Nc3ccc(OCc4ccc(Cl)c(Cl)c4)cc3)c12 | 96.1
34 | CCOC(=O)c1c(C)oc2ncnc(Nc3ccc(OCc4cccc(F)c4)cc3)c12 | 80.1

System: SK-OV-3
Test: Growth inhibition of human SKOV3 cells assessed as cell growth at 10 uM incubated for 48 hrs by sulforhodamine B assay relative to control
Assay type: functional
Details: SK-OV-3, 48 h, read-out: Activity

Row | Compound | growth at 10 µM [%]
35 | CCOC(=O)c1c(C)oc2ncnc(Nc3ccc(OCc4ccc(Cl)c(Cl)c4)cc3)c12 | 98.9
36 | CCOC(=O)c1c(C)oc2ncnc(Nc3ccc(OCc4cccc(F)c4)cc3)c12 | 104

System: SK-MEL-28
Test: Growth inhibition of human SK-MEL-28 cells assessed as cell growth at 10 uM incubated for 48 hrs by sulforhodamine B assay relative to control
Assay type: functional
Details: SK-MEL-28, 48 h, read-out: Activity

Row | Compound | growth at 10 µM [%]
37 | CCOC(=O)c1c(C)oc2ncnc(Nc3ccc(OCc4ccc(Cl)c(Cl)c4)cc3)c12 | 102
38 | CCOC(=O)c1c(C)oc2ncnc(Nc3ccc(OCc4cccc(F)c4)cc3)c12 | 96.9

System: M14
Test: Growth inhibition of human M14 cells assessed as cell growth at 10 uM incubated for 48 hrs by sulforhodamine B assay relative to control
Assay type: functional
Details: M14, 48 h, read-out: Activity

Row | Compound | growth at 10 µM [%]
39 | CCOC(=O)c1c(C)oc2ncnc(Nc3ccc(OCc4ccc(Cl)c(Cl)c4)cc3)c12 | 101
40 | CCOC(=O)c1c(C)oc2ncnc(Nc3ccc(OCc4cccc(F)c4)cc3)c12 | 97.5

System: DU-145
Test: Growth inhibition of human DU145 cells assessed as cell growth at 10 uM incubated for 48 hrs by sulforhodamine B assay relative to control
Assay type: functional
Details: DU-145, 48 h, read-out: Activity

Row | Compound | growth at 10 µM [%]
41 | CCOC(=O)c1c(C)oc2ncnc(Nc3ccc(OCc4ccc(Cl)c(Cl)c4)cc3)c12 | 108
42 | CCOC(=O)c1c(C)oc2ncnc(Nc3ccc(OCc4cccc(F)c4)cc3)c12 | 94.9

System: COLO 205
Test: Growth inhibition of human COLO205 cells assessed as cell growth at 10 uM incubated for 48 hrs by sulforhodamine B assay relative to control
Assay type: functional
Details: COLO 205, 48 h, read-out: Activity

Row | Compound | growth at 10 µM [%]
43 | CCOC(=O)c1c(C)oc2ncnc(Nc3ccc(OCc4ccc(Cl)c(Cl)c4)cc3)c12 | 111
44 | CCOC(=O)c1c(C)oc2ncnc(Nc3ccc(OCc4cccc(F)c4)cc3)c12 | 84.2

Molecular target: Epidermal growth factor receptor (Homo sapiens, UniProt P00533)
Test: Inhibition of recombinant human C-terminal His/N-terminal GST-tagged EGFR (668 to 1210 residues) expressed in baculovirus infected Sf9 cells at 10 uM using biotin-labeled poly[Glu:Tyr] (4:1) as substrate after 30 mins by Kinase-Glo plus luminescence assay relative to control
Details: not given

Epidermal growth factor receptor, sequence (P00533 whole entry, the tested form may be a part): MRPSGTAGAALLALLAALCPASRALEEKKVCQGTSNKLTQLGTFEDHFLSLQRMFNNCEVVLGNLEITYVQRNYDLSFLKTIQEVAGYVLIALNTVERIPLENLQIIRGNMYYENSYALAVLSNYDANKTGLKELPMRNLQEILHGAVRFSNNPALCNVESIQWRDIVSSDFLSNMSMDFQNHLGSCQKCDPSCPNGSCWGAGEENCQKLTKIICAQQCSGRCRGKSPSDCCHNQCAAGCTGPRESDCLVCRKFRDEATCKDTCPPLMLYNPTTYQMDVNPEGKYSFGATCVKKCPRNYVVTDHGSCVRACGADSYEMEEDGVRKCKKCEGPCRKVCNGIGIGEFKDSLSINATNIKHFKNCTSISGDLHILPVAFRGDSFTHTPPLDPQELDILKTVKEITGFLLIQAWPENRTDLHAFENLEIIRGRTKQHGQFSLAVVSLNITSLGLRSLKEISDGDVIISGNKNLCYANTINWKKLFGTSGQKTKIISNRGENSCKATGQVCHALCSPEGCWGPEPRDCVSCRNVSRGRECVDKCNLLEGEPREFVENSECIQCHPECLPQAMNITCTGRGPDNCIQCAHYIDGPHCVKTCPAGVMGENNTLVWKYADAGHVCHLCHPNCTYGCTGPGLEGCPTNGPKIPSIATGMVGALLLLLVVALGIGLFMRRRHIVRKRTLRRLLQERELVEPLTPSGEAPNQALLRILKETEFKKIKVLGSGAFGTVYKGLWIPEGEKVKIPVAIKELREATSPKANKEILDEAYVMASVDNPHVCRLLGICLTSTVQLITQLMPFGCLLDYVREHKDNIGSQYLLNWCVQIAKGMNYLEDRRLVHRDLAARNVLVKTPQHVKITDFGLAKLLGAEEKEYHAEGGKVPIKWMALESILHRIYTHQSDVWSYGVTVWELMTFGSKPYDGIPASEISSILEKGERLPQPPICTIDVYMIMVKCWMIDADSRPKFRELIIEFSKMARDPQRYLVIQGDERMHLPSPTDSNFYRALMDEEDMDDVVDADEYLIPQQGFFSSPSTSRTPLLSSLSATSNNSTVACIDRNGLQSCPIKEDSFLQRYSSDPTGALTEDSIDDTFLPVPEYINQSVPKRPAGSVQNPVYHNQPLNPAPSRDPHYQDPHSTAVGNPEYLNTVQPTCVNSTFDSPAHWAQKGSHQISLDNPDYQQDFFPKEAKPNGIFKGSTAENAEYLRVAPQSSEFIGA

Row | Compound | inhibition [%]
45 | CCOC(=O)c1c(C)oc2ncnc(Nc3ccc(OCc4ccc(Cl)c(Cl)c4)cc3)c12 | 0
46 | CCOC(=O)c1c(C)oc2ncnc(Nc3ccc(OCc4cccc(F)c4)cc3)c12 | 34

System: SK-MEL-5
Test: Growth inhibition of human SK-MEL-5 cells assessed as cell growth at 10 uM incubated for 48 hrs by sulforhodamine B assay relative to control
Assay type: functional
Details: SK-MEL-5, 48 h, read-out: Activity

Row | Compound | growth at 10 µM [%]
47 | CCOC(=O)c1c(C)oc2ncnc(Nc3ccc(OCc4ccc(Cl)c(Cl)c4)cc3)c12 | 103
48 | CCOC(=O)c1c(C)oc2ncnc(Nc3ccc(OCc4cccc(F)c4)cc3)c12 | 93.4

System: A498
Test: Growth inhibition of human A498 cells assessed as cell growth at 10 uM incubated for 48 hrs by sulforhodamine B assay relative to control
Assay type: functional
Details: A498, 48 h, read-out: Activity

Row | Compound | growth at 10 µM [%]
49 | CCOC(=O)c1c(C)oc2ncnc(Nc3ccc(OCc4ccc(Cl)c(Cl)c4)cc3)c12 | 92.3
50 | CCOC(=O)c1c(C)oc2ncnc(Nc3ccc(OCc4cccc(F)c4)cc3)c12 | 91.6

System: HOP-62
Test: Growth inhibition of human HOP62 cells assessed as cell growth at 10 uM incubated for 48 hrs by sulforhodamine B assay relative to control
Assay type: functional
Details: HOP-62, 48 h, read-out: Activity

Row | Compound | growth at 10 µM [%]
51 | CCOC(=O)c1c(C)oc2ncnc(Nc3ccc(OCc4ccc(Cl)c(Cl)c4)cc3)c12 | 101
52 | CCOC(=O)c1c(C)oc2ncnc(Nc3ccc(OCc4cccc(F)c4)cc3)c12 | 87.8

System: UO-31
Test: Growth inhibition of human UO31 cells assessed as cell growth at 10 uM incubated for 48 hrs by sulforhodamine B assay relative to control
Assay type: functional
Details: UO-31, 48 h, read-out: Activity

Row | Compound | growth at 10 µM [%]
53 | CCOC(=O)c1c(C)oc2ncnc(Nc3ccc(OCc4ccc(Cl)c(Cl)c4)cc3)c12 | 98.4
54 | CCOC(=O)c1c(C)oc2ncnc(Nc3ccc(OCc4cccc(F)c4)cc3)c12 | 85
